Consider eleven molecules from patent US8101777B2, “Ionic liquids based on imidazolium salts incorporating a nitrile functionality” (Ecole Polytechnique Federale de Lausanne, priority 2003, dated 2012).

The nature of series [1]: Stability of the nitrile-functionalised anion towards catalytic hydrogenation. The conditions noted are these: 8 mg with RuCl2(PMe3)4 (1 mg) in acetone, H2 40 bar, 35° C., 48 hours. It counts as physicochemical. On the procedure: The stability of the nitrile-functionalised anion towards catalytic hydrogenation is tested by pressurising a solution of K[CH3CH(BF3)CH2CN] (8 mg) and RuCl2(PMe3)4 (1 mg) in acetone (0.4 ml) with H2 (40 bar) at 35° C.

Series [2] in a line: Viscosity, Brookfield DV-II+ viscometer. The series is classed as physicochemical. On the procedure:
The 1-methylimidazole and 1,2-dimethylimidazole and chloronitriles are purchased from Fluka, HPF6 and NaBF4 are purchased from Aldrich and are used as received without further purification. The synthesis of the imidazolium salts 1a-5a is performed under an inert atmosphere of dry nitrogen using standard Schlenk techniques in solvents dried using the appropriate reagents and distilled prior to use. All other compounds are made without precautions to exclude air or moisture. IR spectra are recorded on a Perkin-Elmer FT-IR 2000 system. […] Electrospray ionization mass spectra (ESI-MS) are recorded on a ThermoFinnigan LCQ™ Deca XP Plus quadrupole ion trap instrument on sample diluted in methanol.^19 Samples are infused directly into the source at 5 μL min^−1 using a syringe pump and the spray voltage is set at 5 kV and the capillary temperature at 50° C. Samples 2c, 3c, 4a, 4b and 4c are purified by filtration through silica and left under vacuum (ca. 0.1 mm Hg) at 40-50° C. in order to remove traces of salt impurities and volatile components. […] Density is determined with a picometer at room temperature (20±1° C.) on 1.0 ml of sample. The measurements are repeated three times and average values are used. Viscosities are measured with a Brookfield DV-II+ viscometer on 0.50 ml of sample. […] The measurements are performed in duplicate.

The nature of series [3]: Density determined with a picometer. The series is classed as physicochemical. To be noted: room temperature (20±1° C.), 1.0 ml of sample, average of three. On the procedure: The 1-methylimidazole and 1,2-dimethylimidazole and chloronitriles are purchased from Fluka, HPF6 and NaBF4 are purchased from Aldrich and are used as received without further purification. The synthesis of the imidazolium salts 1a-5a is performed under an inert atmosphere of dry nitrogen using standard Schlenk techniques in solvents dried using the appropriate reagents and distilled prior to use. All other compounds are made without precautions to exclude air or moisture. IR spectra are recorded on a Perkin-Elmer FT-IR 2000 system. […] Electrospray ionization mass spectra (ESI-MS) are recorded on a ThermoFinnigan LCQ™ Deca XP Plus quadrupole ion trap instrument on sample diluted in methanol.^19 Samples are infused directly into the source at 5 μL min^−1 using a syringe pump and the spray voltage is set at 5 kV and the capillary temperature at 50° C. Samples 2c, 3c, 4a, 4b and 4c are purified by filtration through silica and left under vacuum (ca. 0.1 mm Hg) at 40-50° C. in order to remove traces of salt impurities and volatile components. […] Density is determined with a picometer at room temperature (20±1° C.) on 1.0 ml of sample. The measurements are repeated three times and average values are used. Viscosities are measured with a Brookfield DV-II+ viscometer on 0.50 ml of sample. The temperature of the samples is maintained to 25±1° C. by means of an external temperature controller. The measurements are performed in duplicate.

A short description of series [4]: Solubility in common solvents.
The mark [5] stands for this setting: 25±1° C., 0.50 ml of sample, duplicate.

For the molecule `CC(CC#N)[B-](F)(F)F.[K+]` (stereo not drawn) [K[CH3CH(BF3)CH2CN]], the “Reduction of the nitrile-functionalised anion under catalytic hydrogenation” value in series [1] was “No reduction was observed”.

As for `Cn1cc[n+](CCCC(=O)O)c1.F[B-](F)(F)F` [[C3COOHmim][BF4], 1-methyl-3-proylcarboxylimidazolium tetrafluoroborate, reference compound], the Viscosity in series [2] (20° C.) is 4415 cp.

As for `CCCCn1cc[n+](C)c1.F[B-](F)(F)F` [[C4mim][BF4], 1-methyl-3-butylimidazolium tetrafluoroborate, reference compound], the Viscosity in series [2] (20° C.) amounted to 115.2 cp. In series [2] (setting [5]), this molecule registered a Viscosity of 115.2 mpa · s. Further, the Density in series [3] turned out to be 1.14 g/mL. In series [4], the “Solubility in common solvents: Acetone” value is “miscible”, the “Solubility in common solvents: Et2O” value is “immiscible”, the “Solubility in common solvents: EtOH” value was “immiscible” and the “Solubility in common solvents: H2O” value is “miscible”.

As for `CCCCn1cc[n+](C)c1.F[P-](F)(F)(F)(F)F` [[C4mim][PF6], reference compound], the Viscosity in series [2] (setting [5]) is listed as 320.3 mpa · s. In series [3], this molecule yielded a Density of 1.37 g/mL. In series [4], the “Solubility in common solvents: Acetone” value is given as “miscible”, the “Solubility in common solvents: Et2O” value was “immiscible”, the “Solubility in common solvents: EtOH” value was “partly” and the “Solubility in common solvents: H2O” value is reported as “partly”. Moreover, the “Solubility in common solvents: Hexane” value in series [4] was “immiscible”.

With `C=CC[n+]1ccn(C)c1.F[B-](F)(F)F` [[CC═Cmim][BF4], 1-methyl-3-allylimidazolium tetrafluoroborate, reference compound], the Viscosity in series [2] (20° C.) is 6110 cp.

Consider “[1-butylnitrile-3-methylimidazolium]BF4 [[C4CNmim][BF4]]”, for which the Viscosity in series [2] (setting [5]) is given as 552.9 mpa · s. For the same molecule, the Density in series [3] was 1.71 g/mL. Also, in series [4], the “Solubility in common solvents: Acetone” value is “miscible”, the “Solubility in common solvents: Et2O” value is on record as “immiscible”, the “Solubility in common solvents: EtOH” value is “immiscible” and the “Solubility in common solvents: H2O” value is “miscible”. Besides, the “Solubility in common solvents: Hexane” value in series [4] was “immiscible”.

In series [2] (setting [5]), “[1-butylnitrile-3-methylimidazolium]Cl [[C4CNmim][Cl]]” returned a Viscosity of 5222 mpa · s. In addition, in series [3], the Density was found to be 1.61 g/mL. In series [4], the “Solubility in common solvents: Acetone” value was “immiscible”, the “Solubility in common solvents: Et2O” value is given as “immiscible”, the “Solubility in common solvents: EtOH” value is recorded as “miscible” and the “Solubility in common solvents: H2O” value was “miscible”. Further, in series [4], the “Solubility in common solvents: Hexane” value is “immiscible”.

Consider “[1-butylnitrile-3-methylimidazolium]PF6 [[C4CNmim][PF6]]”, for which the Viscosity in series [2] (setting [5]) turned out to be 2181 mpa · s. Further, in series [3], the Density worked out at 1.99 g/mL. In series [4], the “Solubility in common solvents: Acetone” value is given as “miscible”, the “Solubility in common solvents: Et2O” value is “immiscible”, the “Solubility in common solvents: EtOH” value is given as “immiscible” and the “Solubility in common solvents: H2O” value is given as “partly”. Also, the “Solubility in common solvents: Hexane” value in series [4] is recorded as “immiscible”.

Turning to “[1-ethyinitrile-3-methylimidazolium]BF4 [[C2CNmim][BF4]]”, the Viscosity in series [2] (setting [5]) worked out at 65.5 mpa · s. The same molecule returned a Density in series [3] of 2.15 g/mL. Also, in series [4], the “Solubility in common solvents: Acetone” value is on record as “miscible”, the “Solubility in common solvents: Et2O” value is recorded as “immiscible”, the “Solubility in common solvents: EtOH” value is “miscible” and the “Solubility in common solvents: H2O” value is recorded as “miscible”. The “Solubility in common solvents: Hexane” value in series [4] is reported as “immiscible”.

“[1-ethylnitrile-3-methylimidazolium]Cl [[C2CNmim][Cl]]” yielded a Viscosity in series [2] (setting [5]) of 2856 mpa · s. Further, the Density in series [3] is 2.67 g/mL. Further, in series [4], the “Solubility in common solvents: Acetone” value is reported as “immiscible”, the “Solubility in common solvents: Et2O” value is on record as “immiscible”, the “Solubility in common solvents: EtOH” value was “miscible” and the “Solubility in common solvents: H2O” value is reported as “miscible”. Further, the “Solubility in common solvents: Hexane” value in series [4] is “immiscible”.

In series [2] (20° C.), “[1-propylnitrile-3-methylimidazolium]BF4 [[C3CNmim][BF4]]” had a Viscosity of 230.0 cp. The molecule further displayed a Viscosity in series [2] (setting [5]) of 230 mpa · s. Also, the Density in series [3] turned out to be 1.87 g/mL. Also, in series [4], the “Solubility in common solvents: Acetone” value was “miscible”, the “Solubility in common solvents: Et2O” value is “immiscible”, the “Solubility in common solvents: EtOH” value is “immiscible” and the “Solubility in common solvents: H2O” value is on record as “miscible”. Besides, the “Solubility in common solvents: Hexane” value in series [4] is “immiscible”.
